# Biological target: ROCK2 (Homo sapiens, UniProt O75116)
# Experiment: ROCK2 kinase inhibitor activity test (HTRF)
# Type: biochemical
# Settings: ROCK2 1 nM, substrate 500 nM, ATP 6 uM, 1.5 hours at room temperature, read-out: ROCK2 kinase inhibitor activities (IC50)
# Description: ROCK2 Kinase Inhibitor Activity Test
# 1) 4× ROCK2 reaction solution, 4×ATP reaction solution, 4× substrate solution, and 4× compound solution were prepared according to experimental requirements.
# 2) 2.5 μL of 4× kinase solution and 2.5 μL of diluted 4× test compound solutions with different concentration gradients were added to a 384-well plate. 2 replicate wells were provided for each concentration, and an enzyme solution blank control group and a negative control group (DMSO group) were provided at the same time. Centrifugation was performed at 1000 rpm for 1 minute, and the enzyme and the compounds were mixed. 2.5 μL of 4× substrate solution was added to the 384-well plate, centrifugation was performed at 1000 rpm for 1 minute, 2.5 μL of 4× ATP solution was added to the 384-well plate, centrifugation was performed at 1000 rpm for 1 minute to start the enzyme reaction, and incubation was performed at room temperature for 1.5 hours.
# The final concentration of each component of the ROCK2 reaction was: ROCK2: 1 nM, substrate: 500 nM, ATP: 6 uM, and the final concentration range of the test compounds was: 100 nM to 5 pM.
# 3) 4× Streptavidin-XL-665 detection solution was prepared according to experimental requirements.
# 4) After the enzyme reaction was completed, 5 ul of 4× Streptavidin-XL-665 detection solution was added to each well of the 384-well plate, and centrifugation was performed at 1000 rpm for 1 minute. 5 μL of 4×STK Antibody-cryptate detection antibody solution was added to each well of the 384-well plate, centrifugation was performed at 1000 rpm for 1 minute, and incubation was performed for 1 hour at room temperature.
# 5) After antibody incubation was completed, the signal value of each well was measured by the HTRF program on an Envision plate reader.
# 1) Taking the enzyme solution blank control group as 100% inhibition rate and the negative control group (DMSO group) as 0% inhibition rate, the percentage inhibition rate corresponding to each concentration of the test compound was calculated.
# 2) In the GraphPad Prism software, a nonlinear regression analysis was performed on the logarithm of the concentrations of the test compounds and the corresponding percentage inhibition rates to obtain the half-inhibitory concentrations (IC50) of the test compounds.
# The ROCK2 kinase inhibitor activities (IC50) of the compounds detected by this method are as follows: […]
# ROCK2, sequence (O75116 whole entry): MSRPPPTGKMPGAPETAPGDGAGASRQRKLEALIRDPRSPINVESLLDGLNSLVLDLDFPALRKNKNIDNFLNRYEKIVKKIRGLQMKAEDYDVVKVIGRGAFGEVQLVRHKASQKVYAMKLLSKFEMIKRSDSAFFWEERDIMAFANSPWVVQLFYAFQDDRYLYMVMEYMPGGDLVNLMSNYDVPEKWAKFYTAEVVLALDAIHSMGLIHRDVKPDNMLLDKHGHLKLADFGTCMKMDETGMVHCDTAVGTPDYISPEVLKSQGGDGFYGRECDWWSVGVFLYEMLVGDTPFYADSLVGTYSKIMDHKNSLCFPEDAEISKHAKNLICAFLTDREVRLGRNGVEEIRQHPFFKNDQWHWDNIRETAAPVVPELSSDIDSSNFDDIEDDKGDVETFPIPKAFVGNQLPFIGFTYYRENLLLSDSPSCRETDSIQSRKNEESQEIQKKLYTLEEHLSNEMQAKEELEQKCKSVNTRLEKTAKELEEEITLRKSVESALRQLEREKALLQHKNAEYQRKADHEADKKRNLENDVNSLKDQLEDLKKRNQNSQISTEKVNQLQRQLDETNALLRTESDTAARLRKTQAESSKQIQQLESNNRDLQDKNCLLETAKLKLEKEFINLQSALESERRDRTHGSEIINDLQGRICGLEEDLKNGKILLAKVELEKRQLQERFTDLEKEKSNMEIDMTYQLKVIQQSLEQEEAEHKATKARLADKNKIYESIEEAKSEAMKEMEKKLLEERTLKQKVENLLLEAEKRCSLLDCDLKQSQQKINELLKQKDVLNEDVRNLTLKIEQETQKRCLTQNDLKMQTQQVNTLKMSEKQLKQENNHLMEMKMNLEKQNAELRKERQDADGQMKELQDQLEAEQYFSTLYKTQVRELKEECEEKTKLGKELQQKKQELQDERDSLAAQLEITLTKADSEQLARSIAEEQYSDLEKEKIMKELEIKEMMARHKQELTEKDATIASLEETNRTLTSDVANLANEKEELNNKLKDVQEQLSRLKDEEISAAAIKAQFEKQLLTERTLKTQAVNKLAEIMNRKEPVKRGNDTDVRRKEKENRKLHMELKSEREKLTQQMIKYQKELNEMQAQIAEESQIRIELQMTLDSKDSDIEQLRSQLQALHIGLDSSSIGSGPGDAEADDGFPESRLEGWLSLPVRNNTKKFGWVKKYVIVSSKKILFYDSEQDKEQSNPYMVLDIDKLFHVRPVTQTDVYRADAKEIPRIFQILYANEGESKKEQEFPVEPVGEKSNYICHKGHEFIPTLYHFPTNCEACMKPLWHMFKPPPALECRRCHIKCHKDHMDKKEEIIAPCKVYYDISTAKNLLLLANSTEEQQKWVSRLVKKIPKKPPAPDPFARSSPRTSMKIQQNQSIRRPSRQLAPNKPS
row,Compound,IC50 [nM]
1,"4-((S)-3-amino-1-oxy-1-(thieno[2,3-c]pyridin-2-ylamino)prop-2-yl)benzyl(1s,4R)-4-((nitrooxy)methyl)cyclohexane-1-carboxylic acid [Example 27]",4.62
2,"NCC(C(=O)Nc1ccc2cnccc2c1)c1ccc(CO[N+](=O)[O-])cc1 (stereo not drawn) [Example 2, (3-amino-1-(isoquinolin-6-ylamino)-1-oxoprop-2-yl)benzyl nitrate]",5.59
3,NCC(C(=O)Nc1cc2ccncc2s1)c1ccc(CCO[N+](=O)[O-])cc1 (stereo not drawn) [Example 3],10.8
4,"NC[C@@H](C(=O)Nc1ccc2cnsc2c1)c1ccc(CO[N+](=O)[O-])cc1 [Example 4, (S)-4-(3-amino-1-(benzo[d]isothiazol-6-ylamino)-1-oxoprop-2-yl)benzyl nitrate]",1.78
5,"NCC(C(=O)Nc1cc2ccncc2s1)c1ccc(C(CO[N+](=O)[O-])O[N+](=O)[O-])cc1 (stereo not drawn) [Example 5, 1-(4-(3-amino-1-oxo-1-(thieno[2,3-c]pyridin-2-ylamino)prop-2-yl)phenyl)ethane-1,2-dinitrate]",19.2
6,NC[C@@H](C(=O)Nc1cc2ccncc2s1)c1ccc(COC(=O)C2CC(O[N+](=O)[O-])C2)cc1 (stereo partly drawn) [Example 6],1.3
7,"NCC(C(=O)Nc1cc2ccncc2s1)c1ccc(CCCCO[N+](=O)[O-])cc1 (stereo not drawn) [Example 10, 4-(4-(3-amino-1-oxo-1-(thieno[2,3-c]pyridin-2-ylamino)prop-2-yl)phenyl)butyl nitrate]",19.3
8,"NC[C@@H](C(=O)Nc1cc2c(F)cncc2s1)c1ccc(CO[N+](=O)[O-])cc1 [Example 12, (S)-4-(3-amino-1-((4-fluorothieno[2,3-c]pyridin-2-yl)amino)-1-oxoprop-2-yl)benzyl nitrate]",2.95
9,"NCC(C(=O)Nc1cc2ccncc2s1)c1ccc(OC(CO[N+](=O)[O-])CO[N+](=O)[O-])cc1 (stereo not drawn) [Example 14, 2-(4-(3-amino-1-oxo-1-(thieno[2,3-c]pyridin-2-ylamino)propan-2-yl)phenoxy)propane-1,3-dinitrate]",77.3
10,"NC[C@@H](C(=O)Nc1cc2ccncc2s1)c1ccc(COC(=O)C2CCC(O[N+](=O)[O-])CC2)cc1 (stereo partly drawn) [Example 15, (S)-4-(3-amino-1-oxy-1-(thieno[2,3-c]pyridin-2-ylamino)prop-2-yl)benzyl 4-(nitrooxy)cyclohexane-1-carboxylic acid]",1.63
11,"NC[C@@H](C(=O)Nc1cc2ccncc2s1)c1ccc(COC(=O)c2ccc(CCO[N+](=O)[O-])cc2)cc1 [Example 16, (S)-4-(3-amino-1-oxy-1-(thieno[2,3-c]pyridin-2-ylamino)prop-2-yl)benzyl 4-(2-(nitrooxy)ethyl)benzoate]",1.86
12,Cc1cc(CCO[N+](=O)[O-])ccc1C(=O)OCc1ccc([C@@H](CN)C(=O)Nc2cc3ccncc3s2)cc1 [Example 17],5.44
13,Cc1ccc(CCO[N+](=O)[O-])cc1C(=O)OCc1ccc([C@@H](CN)C(=O)Nc2cc3ccncc3s2)cc1 [Example 18],4.62
14,"NC[C@@H](C(=O)Nc1cc2ccncc2s1)c1ccc(COC(=O)[C@H]2CC[C@@H](O[N+](=O)[O-])CC2)cc1 [Example 19, 4-((S)-3-amino-1-oxy-1-(thieno[2,3-c]pyridin-2-ylamino)prop-2-yl)benzyl(1s,4R)-4-(nitrooxy)cyclohexane-1-carboxylate]",1.33
15,"NC[C@@H](C(=O)Nc1cc2ccncc2s1)c1ccc(COC(=O)[C@H]2CC[C@H](O[N+](=O)[O-])CC2)cc1 [Example 20, 4-((S)-3-amino-1-oxy-1-(thieno[2,3-c]pyridin-2-ylamino)prop-2-yl)benzyl(1r,4S)-4-(nitrooxy)cyclohexane-1-carboxylate]",1.43
16,"NC[C@@H](C(=O)Nc1cc2ccncc2s1)c1ccc(COC(=O)c2cccc(CO[N+](=O)[O-])c2)cc1 [Example 21, (S)-4-(3-amino-1-oxo-1-(thieno[2,3-c]pyridin-2-ylamino)prop-2-yl)benzyl 3-((nitrooxy)methyl)benzoate]",1.23
17,"NC[C@@H](C(=O)Nc1cc2ccncc2s1)c1ccc(COC(=O)c2ccc(CO[N+](=O)[O-])cc2)cc1 [Example 22, (S)-4-(3-amino-1-oxo-1-(thieno[2,3-c]pyridin-2-ylamino)prop-2-yl)benzyl 4-((nitrooxy)methyl)benzoate]",1.6
18,"NC[C@@H](C(=O)Nc1cc2ccncc2s1)c1ccc(COC(=O)C2CC(CO[N+](=O)[O-])C2)cc1 (stereo partly drawn) [Example 23, (S)-4-(3-amino-1-oxy-1-(thieno[2,3-c]pyridin-2-ylamino)propan-2-yl)benzyl 3-((nitrooxy)methyl)cyclobutane-1-carboxylate]",1.13
19,"NC[C@@H](C(=O)Nc1cc2ccncc2s1)c1ccc(COC(=O)NCCO[N+](=O)[O-])cc1 [Example 24, (S)-4-(3-amino-1-oxy-1-(thieno[2,3-c]pyridin-2-ylamino)prop-2-yl)benzyl(2-(nitrooxy)ethyl)carbamate]",0.45
20,"NC[C@@H](C(=O)Nc1cc2ccncc2s1)c1ccc(COC(=O)[C@H]2C[C@H](O[N+](=O)[O-])C2)cc1 [Example 25, 4-((S)-3-amino-1-oxo-1-(thieno[2,3-c]pyridin-2-ylamino)propan-2-yl)benzyl (1r,3S)-3-(nitrooxy)cyclobutane-1-carboxylate]",1.78
21,"CC(CO[N+](=O)[O-])(CO[N+](=O)[O-])C(=O)OCc1ccc([C@@H](CN)C(=O)Nc2cc3ccncc3s2)cc1 [Example 26, (S)-4-(3-amino-1-oxo-1-(thieno[2,3-c]pyridin-2-ylamino)prop-2-yl)benzyl 2-methyl-3-(nitrooxy)-2-((nitrooxy)methyl)propionate]",9.9
22,"NC[C@@H](C(=O)Nc1cc2ccncc2s1)c1ccc(COC(=O)c2cccc(CCO[N+](=O)[O-])c2)cc1 [Example 28, (S)-4-(3-amino-1-oxy-1-(thieno[2,3-c]pyridin-2-ylamino)prop-2-yl)benzyl 3-(2-(nitrooxy)ethyl)benzoate]",1.32
23,"NC[C@@H](C(=O)Nc1cc2ccncc2s1)c1ccc(COC(=O)CC2(CO[N+](=O)[O-])CC2)cc1 [Example 29, (S)-4-(3-amino-1-oxy-1-(thieno[2,3-c]pyridin-2-ylamino)prop-2-yl)benzyl 2-(1-((nitrooxy)methyl)cyclopropyl acetate]",2.74
24,"CC(C)(CCCO[N+](=O)[O-])C(=O)OCc1ccc([C@@H](CN)C(=O)Nc2cc3ccncc3s2)cc1 [Example 30, (S)-4-(3-amino-1-oxy-1-(thieno[2,3-c]pyridin-2-ylamino)prop-2-yl)benzyl 2,2-dimethyl-5-(nitrooxy)valerate]",16.5
25,"NC[C@@H](C(=O)Nc1cc2ccncc2s1)c1ccc(COC(=O)CCCCCO[N+](=O)[O-])cc1 [Example 31, (S)-4-(3-amino-1-oxy-1-(thieno[2,3-c]pyridin-2-ylamino)propan-2-yl)benzyl 6-(nitrooxy)hexanoate]",1.58
26,"NC[C@@H](C(=O)Nc1cc2ccncc2s1)c1ccc(COC(=O)C2(CO[N+](=O)[O-])CC2)cc1 [Example 32, (S)-4-(3-amino-1-oxy-1-(thieno[2,3-c]pyridin-2-ylamino)propan-2-yl)benzyl 1-((nitrooxy)methyl)cyclopropane carboxylate]",3.11
27,"NC[C@@H](C(=O)Nc1cc2cnccc2s1)c1ccc(COC(=O)CC[C@H](CO[N+](=O)[O-])O[N+](=O)[O-])cc1 [Example 33, 4-((S)-3-amino-1-oxy-1-(thieno[2,3-c]pyridin-2-ylamino)prop-2-yl)benzyl(R)-4,5-bis(nitrooxy)valeric acid]",1.18
28,"NC[C@@H](C(=O)Nc1cc2ccncc2s1)c1ccc(COC(=O)[C@H]2C[C@@H](CO[N+](=O)[O-])C2)cc1 [Example 34, (1S,3R)-4-((S)-3-amino-1-oxy-1-(thieno[2,3-c]pyridin-2-ylamino)propan-2-yl)benzyl 3-((nitrooxy)methyl)cyclobutane-1-carboxylate]",1.04
29,"NC[C@@H](C(=O)Nc1cc2ccncc2s1)c1ccc(COC(=O)[C@H]2C[C@H](CO[N+](=O)[O-])C2)cc1 [Example 35, (1R,3S)-4-((S)-3-amino-1-oxy-1-(thieno[2,3-c]pyridin-2-ylamino)propan-2-yl)benzyl 3-((nitrooxy)methyl)cyclobutane-1-carboxylate]",6.5
30,"NC[C@@H](C(=O)Nc1cc2ccncc2s1)c1ccc(COC(=O)C2CC(CO[N+](=O)[O-])(CO[N+](=O)[O-])C2)cc1 [Example 36, (S)-4-(3-amino-1-oxy-1-(thieno[2,3-c]pyridin-2-ylamino)prop-2-yl)benzyl 3,3-bis((nitrooxy)methyl)cyclobutane-1-carboxylate]",32.5

# From patent US20220332726A1, “NITROXIDE DERIVATIVE OF ROCK KINASE INHIBITOR” (VIVAVISION (SHANGHAI) LTD, priority 2020, published 2022)
